These results are taken from the METLIN SMRT retention time set (Domingo-Almenara et al. 2019).

The series can be described thus: gradient 5% acetonitrile 3 min, to 50% in 2 min, to 85% in 15 min, held 3 min, 100 µL/min. Particulars: column: Zorbax Extend-C18 2.1 x 50 mm; eluents: water / acetonitrile, 0.1% formic acid. A digest of the protocol:
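Pure standards were analyzed in mixtures of ~100 molecules using HPLC coupled to a quadrupole time-of-flight mass spectrometer, in both positive and negative ionization mode. Separation used a Zorbax Extend-C18 column (2.1 × 50 mm, 1.8 μm) at 100 μL/min, with water and acetonitrile each containing 0.1% formic acid. Dead and dwell volumes were 40 μL and 900 μL, and data were collected over 3 months. Retention time was read from computationally picked adduct peaks, each inspected manually.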
Regarding `N#Cc1c(NC(=O)c2cccnc2)sc2c1CCCCC2`, the RP-LC retention time came to 834 s.
As to `O=C(c1csc(N2CCCC2)n1)N1CCOCC1`, the RP-LC retention time amounted to 628 s.
Turning to `COc1ccc(Cl)cc1NC(=O)CSc1nnc(-c2ccco2)n1-n1cccc1`, the RP-LC retention time worked out at 885 s.
In turn, `O=C(Cc1cc(-c2ccc(Cl)cc2)on1)NCCC1=CCCCC1` came in with an RP-LC retention time of 584 s.
For `O=C(NCc1ccc2c(c1)OCO2)C1CCCN(c2ncc(-c3ccc(F)cc3)cn2)C1` (centres undefined), the RP-LC retention time was determined as 998 s.
In the case of `Cc1cccc(CNC(=O)C2CCCN2S(=O)(=O)c2cc3c(cc2Cl)NC(=O)CO3)c1` (centres undefined), the RP-LC retention time stood at 868 s.
Turning to `Cc1c(C(=O)N2CC(C)CC(C)C2)sc2ncn(CC(=O)N3CCC(C)CC3)c(=O)c12` (centres undefined), the RP-LC retention time amounted to 891 s.
Consider `Cc1ccc(C2Cn3nnc(-c4nc(-c5cccnc5)no4)c3CO2)c(C)c1` (centres undefined), for which the RP-LC retention time came out at 1040 s.
The compound `CCCNC(=O)N1CCN(c2nc3c(s2)CN(C(=O)CC)CC3)CC1` showed an RP-LC retention time of 602 s.
Turning to `CCc1ccc(C2=C(C)C(N3CCCN(C(=O)CC(C)C)CC3)=NS2(=O)=O)cc1`, the RP-LC retention time came out at 874 s.
The compound `O=C(Cc1cccs1)NC1CCN(c2cc(N3CCCC3)cnn2)C1` (centres undefined) displayed an RP-LC retention time of 608 s.
As for `CCc1ccc(C(O)CN2CCN(c3ncccn3)CC2)cc1` (centres undefined), the figure is 621 s; as for `O=C(Nc1ccc2nc3n(c(=O)c2c1)CCCC3)Nc1ccc(F)cc1F`, 690 s.
In the case of `Cc1ccc(NC(=O)N2CCC(N3CCN(Cc4ccccn4)C(=O)C3=O)CC2)c(Cl)c1`, the RP-LC retention time came to 876 s.
With `COc1c(C(=O)NCCN2CCC(C)CC2)sc2ccc(Cl)cc12`, the RP-LC retention time is 710 s.
In the case of `Cc1ccc(C(=O)NCC2CCCN(S(=O)(=O)c3c(C)cc(C)cc3C)C2)cc1` (centres undefined), the RP-LC retention time worked out at 1060 s.
The compound `Cn1nccc1-c1cccc(-c2noc(-c3cccc(F)c3)n2)c1` showed an RP-LC retention time of 1150 s.
`COc1ccc(NC(=O)N2CCN(c3nc4ccccc4nc3C(F)(F)F)CC2)c(OC)c1` showed an RP-LC retention time of 1070 s.
`O=S(=O)(c1ccc2c(c1)OCCO2)N1CCC(CN2CCCCCC2)CC1` gave an RP-LC retention time of 645 s.
On to `COCCCNC(=O)Cn1nc(C)c2nn(-c3ccc(F)cc3)c(-n3cccc3)c2c1=O`, for which the RP-LC retention time worked out at 795 s.
Turning to `CNC(=O)[C@@H]1CN(C(=O)c2cscn2)C[C@H]1c1nc(C)no1`, the RP-LC retention time was 585 s.
With `Cc1sc(NC(=O)Cn2c(=O)sc3ccccc32)nc1-c1ccc(Cl)cc1`, the RP-LC retention time came out at 1110 s.
`COc1ccccc1C(CNC(=O)c1cc(=O)c2ccc(C)c(C)c2o1)N(C)C` (centres undefined): the RP-LC retention time is 639 s.
As for `CN1CCN(S(=O)(=O)c2ccc3nn(Cc4cccc(F)c4)c(=O)n3c2)CC1`, the figure is 964 s.
`Cc1ccc(Cl)c(NC(=O)c2nc(C)oc2C)c1`: the RP-LC retention time stood at 1140 s.
On to `COc1cccc(-n2c(=O)c(C(=O)NC(C)c3ccccc3)c(O)c3cccnc32)c1` (centres undefined), for which the RP-LC retention time was 1180 s.
In the case of `CN1C(=O)C2CCCCN2c2ccc(C(=O)NCCCN3CCCC3)cc21` (centres undefined) it was 586 s; in that of `N#Cc1ccc(C(=O)N2CCN(c3cc(-c4cccs4)[nH]n3)CC2)cc1`, 749 s.
Consider `Cc1ccc(Nc2nc3ccncc3n(Cc3ccccc3)c2=O)cc1Cl`, for which the RP-LC retention time worked out at 898 s.
`Cc1nc(Nc2ccc(Br)cn2)sc1C(=O)NCCN1CCCC1` displayed an RP-LC retention time of 628 s.
In the case of `COCc1noc([C@@H]2CC(F)(F)CN2S(=O)(=O)c2ccccc2)n1`, the RP-LC retention time is 850 s.
The compound `CCCN(CC(=O)N(Cc1ccco1)CC1CCCO1)C(=O)c1ccc2c(c1)OCO2` (centres undefined) returned an RP-LC retention time of 770 s.
Turning to `CCc1ccc(S(=O)(=O)c2cnc(N3CCN(c4cccc(Cl)c4)CC3)nc2N)cc1`, the RP-LC retention time was 1270 s.
`CCOc1ccc(-c2noc(Cn3c(=O)n(-c4ccccc4F)c(=O)c4sccc43)n2)cc1OC` had an RP-LC retention time of 945 s.
For `COc1cccc(-c2noc(Cn3ccnc3C)n2)c1OC`, the RP-LC retention time turned out to be 601 s.
As for `Cc1noc(-c2ccc(=O)n(Cc3ccc(F)cc3)n2)n1`, the figure is 807 s; as for `CCN(CC)c1ccc(C2C(C#N)=C(N)Oc3n[nH]c(C)c32)cc1` (centres undefined), 546 s.
Consider `CCCN1C(=O)COc2ccc(-c3noc(-c4ccc(N(C)C)cc4)n3)cc21`, for which the RP-LC retention time was 1280 s.
In turn, `OCC1CN(c2ncccn2)CC12CCN(Cc1ccc3cc[nH]c3c1)CC2` (centres undefined) came in with an RP-LC retention time of 584 s.
On to `Cc1ccc(-c2cn3nc(N4CCCC(C(=O)N5CCOCC5)C4)sc3n2)cc1` (centres undefined), for which the RP-LC retention time is 800 s.
In the case of `O=C(c1ccco1)N1CCCC(c2nn[nH]n2)C1` (centres undefined) it was 596 s; in that of `Cc1cc(C(=O)N[C@@H]2CN(c3ncccn3)C[C@H]2CO)c(C)o1`, 616 s.
For the compound `COCC(C)(O)CNC(=O)Cc1cccc(C)c1` (centres undefined), the RP-LC retention time was 621 s.
With `COc1ccc(C(=O)N2CCc3ccc(C(=O)NCc4ccco4)cc32)cc1`, the RP-LC retention time is 795 s.
In turn, `O=C(CN1c2ccc(F)cc2-c2ccccc2S1(=O)=O)N1CCCCCC1` had an RP-LC retention time of 958 s.
Turning to `Cc1nc(-c2ccccc2)nc2c1CCC(=O)N2Cc1cccs1`, the RP-LC retention time was 1120 s.
Take `Cc1ccc(Nc2nc(C(=O)NCCc3cccs3)nc3ccccc23)cc1`: the RP-LC retention time was 840 s.
Compound `O=c1c2sccc2n(Cc2nc(-c3ccc(Br)cc3)no2)c(=O)n1-c1cccc(F)c1` came in with an RP-LC retention time of 1070 s.
The compound `Cc1ccc2cc(CCC(=O)N(C)Cc3cn(C)nc3C)c(=O)[nH]c2c1` registered an RP-LC retention time of 645 s.
The compound `Cc1cccc(NC(=O)C2CCN(S(=O)(=O)c3ccc4c(c3)sc(=O)n4C(C)C)CC2)c1` came in with an RP-LC retention time of 1010 s.
As to `COC(=O)c1cc2c(=O)n(-c3ccc(Cl)cc3Cl)ccc2nc1C`, the RP-LC retention time amounted to 928 s.
As to `CCc1nc2c(c(=O)n1CC(=O)Nc1c(C)cccc1C)CN(Cc1ccccc1)CC2`, the RP-LC retention time is 645 s.
As for `Cn1nnnc1SCCNCc1ccc2c(c1)OCCO2`, the RP-LC retention time came out at 577 s.
For the compound `CCCNC(=O)c1ccc(-c2ccnc(N3CCCCC3)n2)cc1`, the RP-LC retention time worked out at 905 s.
Compound `CC1=C(c2ccc(C)cc2)S(=O)(=O)N=C1N1CCCN(C(=O)CC2CCCCC2)CC1` displayed an RP-LC retention time of 962 s.
In the case of `CC(C)C(NC(=O)c1cccc(CN2C(=O)C3CCCN3C(=O)c3ccccc32)c1)c1cccs1` (centres undefined) it was 882 s; in that of `CC(C)N1CCC(OCCCNC(=O)CN2CCCc3nc(C4CC4)ncc3C2=O)CC1`, 576 s; in that of `COc1cccc(-c2ccc(=O)n(Cc3nc(-c4ccc(OC)c(OC)c4)no3)n2)c1`, 887 s.
`CNC(=O)[C@@H]1CN(C(=O)c2cscn2)C[C@H]1c1nc(COC)no1` yielded an RP-LC retention time of 582 s.
`COCc1cc2nn(CC(=O)Nc3cc(F)ccc3C)c(=O)n2c(-c2ccccc2)n1` had an RP-LC retention time of 853 s.
The compound `O=C1CC(c2nc(-c3ccccc3Cl)no2)CN1c1ccc2c(c1)OCO2` (centres undefined) displayed an RP-LC retention time of 933 s.
In the case of `O=C(Nc1cnc(N2CCCC2)nc1)c1cccc(Br)c1` it was 796 s; in that of `CNc1ccc2oc(C[C@H]3O[C@@]4(CC[C@H]3C)O[C@H]([C@H](C)C(=O)c3ccc[nH]3)[C@H](C)C[C@H]4C)nc2c1C(=O)O`, 1030 s.
As for `COc1cccc(CCC(=O)N2CC3CN(S(=O)(=O)c4ccc(C)cc4)CC(C2)O3)c1`, the RP-LC retention time was found to be 908 s.
The compound `c1ccc(-c2nc(-c3ccncc3)no2)c(OC2CCNC2)c1` (centres undefined) returned an RP-LC retention time of 604 s.
Regarding `CCCNC(=O)C1CCCN(c2nc3ncn(CC(=O)Nc4cccc(C(C)C)c4)c(=O)c3s2)C1` (centres undefined), the RP-LC retention time amounted to 802 s.
As to `CS(=O)(=O)N1CCC(OC2CCN(C(=O)c3ccccc3)CC2)CC1`, the RP-LC retention time was found to be 709 s.
`O=C(c1csc(-c2ccc(N3CCCC3)nc2)n1)N1CCCCCC1` displayed an RP-LC retention time of 937 s.
Compound `CN(C)c1ccc(C(=O)N2CCN(c3cc(-c4ccccc4)[nH]n3)CC2)cc1` showed an RP-LC retention time of 757 s.
In the case of `O=C(c1ccccn1)N1CCCC(OCc2nc(C3CC3)no2)C1` (centres undefined) it was 619 s.
As for `O=C(c1cn2cc(Cl)ccc2n1)N1CCN(c2ccc(F)cc2)CC1`, the figure is 876 s.
The compound `COCCC(=O)N1CCCN(C2=NS(=O)(=O)C(c3ccccc3)=C2C)CC1` registered an RP-LC retention time of 669 s.
The compound `C=CCN(Cc1nc(-c2ccc(C)cc2)no1)C(=O)Nc1ccc(C)cc1` gave an RP-LC retention time of 1100 s.
As to `CC(C)n1cnnc1CC1CN(C(=O)Nc2ccccc2F)C1`, the RP-LC retention time worked out at 608 s.
As for `CCc1nnc(-c2ccc(=O)n(CC(=O)Nc3ccc(C)cc3C)c2)o1`, the RP-LC retention time was determined as 693 s.
`Cc1nc2cc(-c3noc(-c4cccc(Br)c4)n3)ccc2n(C)c1=O` registered an RP-LC retention time of 1170 s.
For `COCCc1noc([C@@H]2CN(Cc3cccc4[nH]ccc34)C[C@H]2CO)n1`, the RP-LC retention time is 554 s.
In the case of `COc1cccc(C(=O)Nc2ccc3c(c2)Sc2ncccc2C(=O)N3C)c1OC` it was 816 s; in that of `Cc1cccc(N2CCN(c3cc(C(=O)O)c4cc(NS(C)(=O)=O)ccc4n3)CC2)c1C`, 715 s.
